Assay results reported in US20030109523A1, “Bicyclic antagonists selective for the alphavbeta3 integrin” (Wyeth, priority 1999, published 2003).
Where a name gives a salt, the structure may show the parent alone. Read-outs that look alike come from different tables or passages of the source. Ends that are not written are not given here. Peptide text beside a SMILES is read from it.

How the values were obtained:
αIIbβ3 integrin = target: T1, αIIbβ3 integrin (Homo sapiens, UniProt P05106+P08514); experiment: ADP-Induced Platelet Aggregation; format: cell-based; conditions: for ability to inhibit ADP induced platelet aggregation: reference peptides, at 200 μM; for remaining activity at 200 µM: percent of maximal aggregation; for IC50: ADP 20 uM, human platelets
T1 construct: Human Platelets: Platelet-enriched plasma was obtained commercially from a donor pool; from tissue; host or cells: human platelet-rich plasma from a commercial donor pool
T1 sequence (P08514 32-887 limits assumed): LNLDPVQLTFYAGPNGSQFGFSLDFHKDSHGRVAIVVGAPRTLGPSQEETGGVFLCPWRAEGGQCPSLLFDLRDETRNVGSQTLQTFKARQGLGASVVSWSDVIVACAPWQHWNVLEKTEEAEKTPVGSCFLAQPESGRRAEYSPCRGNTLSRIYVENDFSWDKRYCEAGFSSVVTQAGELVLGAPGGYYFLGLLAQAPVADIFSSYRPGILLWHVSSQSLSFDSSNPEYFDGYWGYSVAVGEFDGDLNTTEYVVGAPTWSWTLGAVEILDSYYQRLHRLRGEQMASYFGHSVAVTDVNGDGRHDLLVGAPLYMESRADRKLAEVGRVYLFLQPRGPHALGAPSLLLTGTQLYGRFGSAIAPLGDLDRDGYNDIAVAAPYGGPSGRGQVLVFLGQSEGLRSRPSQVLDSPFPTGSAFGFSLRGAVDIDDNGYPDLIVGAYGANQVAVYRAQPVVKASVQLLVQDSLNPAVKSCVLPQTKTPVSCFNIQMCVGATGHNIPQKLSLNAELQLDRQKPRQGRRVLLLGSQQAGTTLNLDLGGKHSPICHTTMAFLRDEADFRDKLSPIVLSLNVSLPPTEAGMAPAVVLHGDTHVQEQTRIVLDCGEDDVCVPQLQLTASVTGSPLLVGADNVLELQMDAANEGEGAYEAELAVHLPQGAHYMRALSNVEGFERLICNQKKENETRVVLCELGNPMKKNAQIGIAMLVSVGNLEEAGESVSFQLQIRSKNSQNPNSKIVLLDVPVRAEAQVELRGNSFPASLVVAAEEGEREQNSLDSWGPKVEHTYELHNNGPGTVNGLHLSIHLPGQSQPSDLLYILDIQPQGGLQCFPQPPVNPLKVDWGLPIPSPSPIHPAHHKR
T1 sequence (P08514 891-1039 partner limits assumed): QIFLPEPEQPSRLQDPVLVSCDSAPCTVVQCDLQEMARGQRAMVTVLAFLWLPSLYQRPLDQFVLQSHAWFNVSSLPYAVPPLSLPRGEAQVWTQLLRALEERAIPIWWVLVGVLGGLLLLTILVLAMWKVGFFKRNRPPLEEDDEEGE
T1 sequence (P05106 27-788): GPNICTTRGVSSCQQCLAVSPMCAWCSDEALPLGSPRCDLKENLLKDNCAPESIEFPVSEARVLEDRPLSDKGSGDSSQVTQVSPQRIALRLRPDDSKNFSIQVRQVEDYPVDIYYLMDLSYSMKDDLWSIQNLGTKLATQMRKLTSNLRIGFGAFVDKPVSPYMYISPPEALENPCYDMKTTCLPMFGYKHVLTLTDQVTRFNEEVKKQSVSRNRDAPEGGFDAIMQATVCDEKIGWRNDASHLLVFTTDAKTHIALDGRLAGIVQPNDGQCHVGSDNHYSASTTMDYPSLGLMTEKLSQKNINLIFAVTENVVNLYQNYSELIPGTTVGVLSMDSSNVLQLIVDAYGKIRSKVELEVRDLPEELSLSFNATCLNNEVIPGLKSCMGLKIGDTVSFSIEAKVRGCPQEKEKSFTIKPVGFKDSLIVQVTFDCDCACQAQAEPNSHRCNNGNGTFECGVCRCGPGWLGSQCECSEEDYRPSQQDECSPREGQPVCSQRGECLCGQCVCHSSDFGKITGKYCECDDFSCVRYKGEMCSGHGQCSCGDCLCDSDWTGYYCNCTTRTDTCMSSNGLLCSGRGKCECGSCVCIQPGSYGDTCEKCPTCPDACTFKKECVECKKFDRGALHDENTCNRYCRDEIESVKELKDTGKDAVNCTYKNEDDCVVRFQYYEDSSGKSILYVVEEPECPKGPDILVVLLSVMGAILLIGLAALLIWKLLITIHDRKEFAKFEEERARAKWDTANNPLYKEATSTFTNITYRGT
Procedure: Measurement of the Effect of Compounds on ADP-Induced Platelet Aggregation
Measuring the effect of compounds on ADP-induced platelet aggregation mediated by a fibrinogen-αIIbβ3 integrin interaction.
Human Platelets: Platelet-enriched plasma was obtained commercially from a donor pool. The plasma was tested prior to shipment and found to be negative for HIV, HCV and Hepatitis B. Platelet-rich plasma (PRP) was obtained by diluting plasma to an approximate final concentration of 3×10(6) platelets per mL in platelet poor plasma (PPP). PPP was the supernatant of a lowspeed centrifugation of plasma.
Adenosine diphosphate (ADP): ADP was obtained commercially and diluted to 1 mM (stock solution) in distilled, deionized water (ddH2O).
Incubation: PRP and PPP were prewarmed in a water bath at 37° C. […] PRP plus sample compound in a final volume of 500 uL was added to a pre-warmed cuvette in a ChronoLog aggregometer. A control containing PRP and 5 uL of vehicle was treated similarly to the test cuvette; final vehicle concentration was 1%. The two cuvettes were incubated with stirring (1000 rpm) at 37° C. for 5 minutes. Five hundred microliters of PPP was used as a reference (100% aggregation).
Aggregation: To begin the test, ADP was added yielding a final concentration of 20 uM to both samples (plus and minus sample compound). Light transmittance was monitored continuously and compared to the reference cuvette. After five minutes, the test was terminated and the slope and maximal amplitude of the resulting aggregation plot was calculated by the aggregometer.
The percent of maximal aggregation is the ratio of the maximal aggregations of the sample cuvette to the control multiplied by 100 (% Max) and reported as the mean+−standard deviation.

[1] = target: T2, Vitronectin Receptor (αVβ3) (Homo sapiens, UniProt P05106+P06756); experiment: Vitronectin Receptor (αVβ3) Binding Test Procedure
T2 construct: expressed in transfected cells; host or cells: 512P5 cells (plasma membrane preparation)
T2 sequence (P06756 31-889 limits assumed): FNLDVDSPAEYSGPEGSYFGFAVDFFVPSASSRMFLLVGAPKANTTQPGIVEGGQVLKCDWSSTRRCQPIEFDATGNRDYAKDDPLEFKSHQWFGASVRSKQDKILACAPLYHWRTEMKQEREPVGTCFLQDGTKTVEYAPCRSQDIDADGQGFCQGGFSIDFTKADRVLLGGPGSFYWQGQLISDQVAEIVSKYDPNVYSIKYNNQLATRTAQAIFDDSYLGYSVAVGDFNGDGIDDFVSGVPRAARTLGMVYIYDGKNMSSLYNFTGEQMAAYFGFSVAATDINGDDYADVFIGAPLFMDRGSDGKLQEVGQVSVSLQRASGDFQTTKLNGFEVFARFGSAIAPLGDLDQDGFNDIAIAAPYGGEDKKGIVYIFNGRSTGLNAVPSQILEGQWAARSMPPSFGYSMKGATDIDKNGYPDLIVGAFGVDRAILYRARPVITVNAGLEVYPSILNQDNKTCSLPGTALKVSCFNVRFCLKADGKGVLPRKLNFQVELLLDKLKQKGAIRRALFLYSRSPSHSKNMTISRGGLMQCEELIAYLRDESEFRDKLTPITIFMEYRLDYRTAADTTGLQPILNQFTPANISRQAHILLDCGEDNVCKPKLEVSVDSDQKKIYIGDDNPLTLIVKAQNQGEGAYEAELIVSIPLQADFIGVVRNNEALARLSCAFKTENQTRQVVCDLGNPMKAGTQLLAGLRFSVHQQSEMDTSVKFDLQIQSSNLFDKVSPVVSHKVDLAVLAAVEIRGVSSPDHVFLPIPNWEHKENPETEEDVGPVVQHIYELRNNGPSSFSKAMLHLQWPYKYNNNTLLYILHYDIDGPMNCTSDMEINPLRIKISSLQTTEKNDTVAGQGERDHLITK
T2 sequence (P06756 891-1048 partner limits assumed): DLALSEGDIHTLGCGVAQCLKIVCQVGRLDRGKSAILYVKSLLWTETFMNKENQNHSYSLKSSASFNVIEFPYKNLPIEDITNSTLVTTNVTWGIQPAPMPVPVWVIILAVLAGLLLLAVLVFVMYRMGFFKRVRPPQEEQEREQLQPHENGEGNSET
T2 sequence (P05106 27-788): as the sequence (P05106 27-788) above

osteoclasts = experiment: Osteoclast Bone Pitting; format: cell-based, rat
Procedure: Osteoclast Bone Pitting The test procedure was conducted as described by R. J. Murrills and D. W. […] At this pH the adherent osteoclasts excavate an adequate number of resorption pits for assay purposes. Slices were fixed in 2.5% glutaraldehyde and osteoclasts counted following tartrate-resistant acid phosphatase staining. […] All cells were stripped from the slice by sonication on 0.25M NH4OH and the resorption pits formed by the osteoclasts during the experiment stained with toluidine blue. Resorption pits were quantified by manually counting. The experiments were conducted according to a block design with osteoclasts from each animal exposed to each treatment. Three replicate slices were used per treatment per animal, such that a total of 96 slices were examined for an experiment involving four animals and eight treatments (including control). Several parameters were recorded on a “per slice” basis: number of pits, number of osteoclasts, number of pits per osteoclast, number of fibroblast-like bone cells. SAS or JMP statistical software were used for statistical analysis. […] IC50s were calculated using dose-response curves.

αVβ3 integrin = target: T3, αVβ3 integrin (Homo sapiens, UniProt P05106+P06756); experiment: Osteopontin-αVβ3 Cell Attachment Test Procedure; format: cell-based; conditions: for remaining activity at 100 µM / remaining activity at 20 µM / (αVβ3) CELL ATTACHMENT, % @ concentration: % of maximal attachment; for remaining activity at 100 µM / remaining activity at 20 µM: read-out: (αVβ3) CELL ATTACHMENT, % @ concentration
T3 construct: αVβ3-expressing cell lines are maintained by standard tissue culture techniques; endogenous in cells; host or cells: αVβ3-expressing cell lines
T3 sequence (P06756 31-889 limits assumed): as the sequence (P06756 31-889 limits assumed) above
T3 sequence (P06756 891-1048 partner limits assumed): as the sequence (P06756 891-1048 partner limits assumed) above
T3 sequence (P05106 27-788): as the sequence (P05106 27-788) above
Procedure: Osteopontin-αVβ3 Cell Attachment Test Procedure
Measuring the effect of compounds on the RGD-dependent attachment of cells to osteopontin mediated by the αVβ3 integrin.
Following incubation the wells were aspirated and washed once with D-PBS; plates can either be used immediately or stored for up to 1 week at 4° C. Prior to assay, the wells were blocked with 1% bovine serum albumin (BSA) in cell suspension media for 1 hour at 37° C. Following the blocking period, wells were aspirated and washed once with D-PBS.
αVβ3-expressing cell lines are maintained by standard tissue culture techniques. […] The cells were pelleted by low-speed centrifugation and washed three times with 0.5 mg/mL trypsin inhibitor in D-PBS (Sigma). The final cell pellet was resuspended in cell suspension media at a concentration of 10^6 cells/mL.
Incubation: 100 μL of diluted test compound was added to osteopontin-coated wells (in triplicate) followed by 100 μL of cell suspension; background cell attachment was determined in uncoated wells. The plate was incubated at 25° C. in a humidified air atmosphere for 1.5 hours. Following the incubation period, the wells were gently aspirated and washed once with D-PBS.
Cell Number Detection: The number of cells attached was determined by an MTT dye conversion assay (Promega) according to the manufacturer's instructions. Briefly, MTT dye was diluted in cell suspension media (15:85) and 100 μL was added to each well. […] The assay plates were covered and incubated at 37° C. in a humidified air atmosphere overnight.
The individual well optical density was expressed as a percentage of the maximal attachment (% Max) wells minus background attachment, and reported as the mean ±standard deviation.

[2] = attachment of cells to osteopontin, read-out: (αVβ3) IC50 CELL ATTACHMENT
[3] = read-out: (αVβ3) IC50 RECEPTOR BINDING
[4] = % Max = percentage of the specific binding, read-out: (αVβ3) RECEPTOR BINDING, % @ concentration
[5] = reference compounds, Table VI, read-out: IC50 (95% Confidence Interval)
[6] = reference RGD peptides, 125I-Echistatin 50 pM, read-out: IC50

With GRGESP [reference compound] the “ability to inhibit ADP induced platelet aggregation” value (αIIbβ3 integrin; Table VI) was “Inactive at 200” and the “ability to inhibit αVβ3 binding” value ([1]; reference peptide, at 100 μm) was “inactive at 100 μm”.

For `N=C(N)NCCOc1ccc2c(c1)NC(=O)C(CC(=O)O)C2` (centres unmarked) [Example 85, [7-(2-Guanidino-ethoxy)-2-oxo-1,2,3,4-tetrahydro-quinolin-3-yl]-acetic Acid Hydrochloride], the inhibition at 273 µM (osteoclasts; Rattus norvegicus, Osteoclast, @ 273 μM) was 33%, the remaining activity at 200 µM (αIIbβ3 integrin; Table VII) was 93.3% and the IC50 (αVβ3 integrin; [2]) was 111 µM. For the same compound, the IC50 [1, 3] was 15.7 µM.

With `N=C(N)NCCOc1ccc2c(c1)CC(CCC(=O)O)C(=O)N2` (centres unmarked) [Example 222, 3-[6-(2-Guanidino-ethoxy)-2-oxo-1,2,3,4-tetrahydro-quinolin-3-yl]-propionic Acid] the inhibition at 22 µM (osteoclasts; Rattus norvegicus, Osteoclast, @ 22 μM) was -58%, the remaining activity at 200 µM (αIIbβ3 integrin; Table VII) was 90.3% and the remaining activity at 100 µM (αVβ3 integrin; @ 100 μM) was 100%.

“Calcitonin: anti-resorptive used in the clinic; reference compound of the bone pitting test is Rat Calcitonin (CGNLSTCMLGTYTQDLNKFHTFPQTSIGVGAP; ends and bridges not checked; cysteine pairing not given here; UniProt P01257 85-116, looked up) [reference compound]” was tested, and the “osteoclast inhibitory activity in this test procedure” value (osteoclasts; statement in words) was “significant osteoclast inhibitory activity”.

`N=C(N)NCCCNC(=O)c1ccc2c(c1)NC(=O)C(CC(=O)O)C2` (centres unmarked) [Example 201, [7-(3-Guanidino-propylcarbamoyl)-2-oxo-1,2,3,4-tetrahydro-quinolin-3-yl]-acetic Acid Hydrochloride] showed an inhibition at 256 µM (osteoclasts; Rattus norvegicus, Osteoclast, @ 256 μM) of 45%, a remaining activity at 200 µM (αIIbβ3 integrin; Table VII) of 85% and an IC50 (αVβ3 integrin; [2]) of 25.4 µM. For the same compound, the IC50 [1, 3] was 5.8 µM.

`N=C(N)NCCCCOc1ccc2[nH]c(=O)c(CC(=O)O)cc2c1` [Example 238, [6-(4-Guanidino-butoxy)-2-oxo-1,2-dihydro-quinolin-3-yl]-acetic Acid Trifluoroacetic Acid Salt] gave an inhibition at 215 µM (osteoclasts; Rattus norvegicus, Osteoclast, @ 215 μM) of -20%, a remaining activity at 200 µM (αIIbβ3 integrin; Table VII) of 94% and a remaining activity at 20 µM (αVβ3 integrin; @ 20 μM) of 102%. The remaining activity at 100 µM (αVβ3 integrin; @ 100 μM) was 97.9% and the remaining activity at 30 µM [1, 4] was 100%.

In the case of “[7-(2-Guanidino-ethoxy)-2-oxo-1,2-dihydro-quinolin-3-yl]propionic Acid Methyl Ester [Example 246]”, the “BONE PITTING INHIBITION” value (osteoclasts; @ 26.2 μM) is reported as 52%@ 26.2, the “(αVβ3) CELL ATTACHMENT, % @ concentration” value (αVβ3 integrin; @ 20 μM) is reported as 102%@ 20 and the “(αVβ3) CELL ATTACHMENT, % @ concentration” value (αVβ3 integrin; @ 100 μM) is reported as 84.2%@ 100.

For `N=C(N)NCCC[C@H](NC(=O)CN)C(=O)NCC(=O)N[C@@H](CC(=O)O)C(=O)N[C@@H](CO)C(=O)N1CCC[C@H]1C(=O)O` [GRGDSP, reference compound], the “ability to inhibit ADP induced platelet aggregation” value (αIIbβ3 integrin; Table VI) was “Inactive at 200”.

Work on `CCOC(=O)CC1CCc2cc(OCCCNC(=N)N)ccc2C1` (centres unmarked) [Example 31, [6-(3-Guanidinopropoxy)-1,2,3,4-tetrahydro-napthalen-2-yl]-acetic Acid Ethyl Ester] yielded an IC50 (αIIbβ3 integrin; Table VII, read-out: Platelet Aggregation αIIbβ3 IC50) of 160 µM, a remaining activity at 100 µM (αVβ3 integrin; @ 100 μM) of 100% and a remaining activity at 30 µM [1, 4] of 88%.

`N=C(N)NCCCCOc1ccc2c(c1)CCCC(CC(=O)O)C2` (centres unmarked) [Example 63, [2-(4-Guanidino-butoxy)-6,7,8,9-tetrahydro-5H-benzocyclohepten-6-yl]-acetic Acid Trifluoroacetate] was tested, and the remaining activity at 200 µM (αIIbβ3 integrin; Table VII) was 51.5%, the IC50 (αVβ3 integrin; [2]) was 32.8 µM and the IC50 [1, 3] was 3.9 µM.

Work on `O=C(O)CC1CCc2cc(OCCCNc3ncccn3)ccc2C1` (centres unmarked) [Example 213, {6-[3-(Pyrimidin-2-ylamino)-propoxy]-1,2,3,4-tetrahydro-naphthalen-2-yl}-acetic Acid] yielded a remaining activity at 100 µM [1, 4] of 54%.

For `N=C(N)NCCC[C@H](N)C(=O)NCC(=O)N[C@@H](CC(=O)O)C(=O)N[C@@H](Cc1ccccc1)C(=O)O` [RGDF, reference compound] (H-RGDF-OH; N-terminus and C-terminus assumed), the IC50 (αIIbβ3 integrin; [5]) was 97.6 µM.

With `COC(=O)CC1CCc2cc(OCCCNc3ncccn3)ccc2C1` (centres unmarked) [Example 212, {6-[3-(Pyrimidin-2-ylamino)-propoxy]-1,2,3,4-tetrahydro-naphthalen-2-yl}-acetic Acid Methyl Ester] the remaining activity at 3 µM ([1]; @ 3 μM, % Max = percentage of the specific binding, read-out: (αVβ3) RECEPTOR BINDING, % @ concentration) was 98.7%, the remaining activity at 10 µM ([1]; @ 10 μM, % Max = percentage of the specific binding, read-out: (αVβ3) RECEPTOR BINDING, % @ concentration) was 98.3% and the remaining activity at 30 µM [1, 4] was 102%. The remaining activity at 100 µM [1, 4] was 99.3%.

For Echistatin [reference compound], the IC50 (αIIbβ3 integrin; [5]) was 0.0156 µM.

For GRGDTP [GRGDTP, reference compound], the “ability to inhibit ADP induced platelet aggregation” value (αIIbβ3 integrin; Table VI) was “Inactive at 200”, the IC50 (αVβ3 integrin) was 5.2 µM and the IC50 [1, 6] was 0.49 µM.

`CCOC(=O)CC1CCc2cc(OCCCNC3=NCCCN3)ccc2C1` (centres unmarked) [Example 216, {6-[3-(1,4,5,6-Tetrahydro-pyrimidin-2-ylamino)-propoxy]-1,2,3,4-tetrahydro-naphthalen-2-yl}-acetic Acid Ethyl Ester, Acetic Acid Salt] was tested, and the inhibition at 200 µM (osteoclasts; Rattus norvegicus, Osteoclast, @ 200 μM) was 95% and the IC50 [1, 3] was 60 µM.

Work on `Cc1ccc(S(=O)(=O)NC(=O)CC2CCc3cc(OCCCNC4=NCCCN4)ccc3C2)cc1` (centres unmarked) [Example 217, 4-Methyl-N-({6-[3-(1,4,5,6-tetrahydro-pyrimidin-2-ylamino)-propoxyl]1,2,3,4-tetrahydro-naphthalen-2-yl}-acetyl)-benzenesulfonamide, Trifluoroacetic Acid Salt] yielded an inhibition at 1 µM (osteoclasts; Rattus norvegicus, Osteoclast, @ 1 μM) of 51%, a remaining activity at 200 µM (αIIbβ3 integrin; Table VII) of 98% and an IC50 [1, 3] of 14.7 µM.

With GRGDNP [GRGDNP, reference compound] the “ability to inhibit ADP induced platelet aggregation” value (αIIbβ3 integrin; Table VI) was “Inactive at 200” and the IC50 [1, 6] was 0.237 µM.

Work on `N=C(N)NCCOc1ccc2cc(CC(=O)O)c(=O)[nH]c2c1` [Example 185, [7-(2-Guanidino-ethoxy)-2-oxo-1,2-dihydro-quinolin-3-yl]-acetic Acid] yielded an inhibition at 239 µM (osteoclasts; Rattus norvegicus, Osteoclast, @ 239 μM) of 58%, a remaining activity at 200 µM (αIIbβ3 integrin; Table VII) of 94.8% and a remaining activity at 20 µM (αVβ3 integrin; @ 20 μM) of 102%. It also gave a remaining activity at 100 µM (αVβ3 integrin; @ 100 μM) of 96.8%.
